As usually defined, the EC50 is the concentration that produces a half-maximal response.

Bounds are passed on as bounds.

The experiment in a line: Inhibition of Enterovirus 71 Shenzhen/120F1/09 capsid infected in human RD cells assessed as reduction in virus-induced cell death after 72 hrs by CCK-8 assay.

For the molecule `S=C1N(CCCCCOc2ccc(-c3ccc(Cl)cc3)cc2)CCN1c1ccncc1`, the EC50 was 2800 nM.
Under `Nc1cc(N2CCN(CCCCCOc3ccc(-c4ccc(Cl)cc4)cc3)S2(=O)=O)ccn1` stands 12 nM.
`CCO/N=C/c1ccc(OCCCCCN2CCN(c3ccnc(N)c3)S2(=O)=O)cc1`: the EC50 was determined as 0.9 nM.
On to `CCn1ncc2cc(OCCCCCN3CCN(c4ccnc(N)c4)S3(=O)=O)ccc21`, for which the EC50 is more than 1000 nM.
The value for `O=C1N(CCCCC2CCc3cc(-c4ccc(Cl)cc4)ccc3O2)CCN1c1ccncc1` (configuration not stated) was 48 nM.
Under `O=C1N(CCCCc2nc3cc(-c4ccc(Cl)cc4)ccc3o2)CCN1c1ccncc1` stands 1100 nM.
As for `CCO/N=C1\CCCc2cc(OCCCCCN3CCN(c4ccnc(N)c4)S3(=O)=O)ccc21`, the EC50 is 309 nM.
The value for `O=C1CC(CCCCN2CCN(c3ccncc3)C2=O)Oc2ccc(-c3ccc(Cl)cc3)cc21` (configuration not stated) was 540 nM.
Under `O=C1C(=O)N(c2ccncc2)CCN1CCCCCOc1ccc(-c2ccc(Cl)cc2)cc1` stands more than 1000 nM; under `Cc1cc(CCCOc2c(C)cc(-c3noc(C(F)(F)F)n3)cc2C)on1` [3-(3,5-dimethyl-4-(3-(3-methylisoxazol-5-yl)propoxy)phenyl)-5-(trifluoromethyl)-1,2,4-oxadiazole], more than 100000 nM.
The value for `NC(=O)c1ncn([C@@H]2O[C@H](CO)[C@@H](O)[C@H]2O)n1` [Tribavirin] was more than 100000 nM; that for `O=C1CN(CCCCCOc2ccc(-c3ccc(Cl)cc3)cc2)CCN1c1ccncc1` was 1200 nM.
For the molecule `CCO/N=C1\CCc2cc(OCCCCCN3CCN(c4ccnc(N)c4)S3(=O)=O)ccc21`, the 50% effective concentration (EC50) was 4 nM.
Under `CCc1noc2cc(OCCCCCN3CCN(c4ccnc(N)c4)S3(=O)=O)ccc12` stands 352 nM; under `O=C1N(CCCCc2cc3cc(-c4ccc(Cl)cc4)ccc3o2)CCN1c1ccncc1`, 1100 nM.
Under `O=C1N(CCCCCOc2ccc(-c3ccc(Cl)cc3)cc2)CCN1c1ccncc1` [1-[5-(4''-Chloro-biphenyl-4-yloxy)-pentyl]-3-pyridin-4-yl-imidazolidin-2-one] stands 91 nM.
Consider `CCO/N=C(\C)c1ccc(OCCCCCN2CCN(c3ccnc(N)c3)S2(=O)=O)cc1`, for which the EC50 was 600 nM.
Under `O=S1(=O)N(CCCCCOc2ccc(-c3ccc(Cl)cc3)cc2)CCN1c1ccncc1` stands 110 nM.
The value for `CCO/N=C/c1ccc(OCCC(C)CCN2CCN(c3ccnc(N)c3)C2=O)cc1` (configuration not stated) was 0.03 nM; that for `O=C1CN(c2ccncc2)CCN1CCCCCOc1ccc(-c2ccc(Cl)cc2)cc1` was 180 nM.
The value for `CCO/N=C(\CC)c1ccc(OCCCCCN2CCN(c3ccnc(N)c3)S2(=O)=O)cc1` was 554 nM; that for `CCn1ccc2cc(OCCCCCN3CCN(c4ccnc(N)c4)S3(=O)=O)ccc21` was more than 1000 nM.
